{"source": "patent US20060111437A1", "about": "“Hyperlipemia therapeutic agent” (Kowa Co., Ltd., priority 2004, published 2006)", "assay": "Effect on blood triglyceride in rats after repeated oral administration", "type": "in vivo", "details": "male Wistar rats; orally once a day for 21 days; pitavastatin calcium 10 mg/kg and/or EPA-E 1000 mg/kg; blood taken after fasting for 18 hours since final administration; FIG. 1", "procedure": "Male Wistar rats aged 6 weeks (Japan Medical Science Experimental Animal Co., Ltd.) were tested. They were fed in a room maintained in a bright and dark cycle (bright duration by a room light: 7:00 a.m. to 7:00 p.m.) at a temperature of 23±3° C. and a humidity of 55±15% through an experimental duration and allowed to freely take a chow (CE-2; Nippon Clear Co., Ltd.) and city water. Pitavastatin calcium was suspended in a 0.5 mass % aqueous solution of sodium carboxymethyl cellulose (Iwai Kagaku Yakuhin Co., Ltd.) and controlled so that a dose was 2 ml/kg. Pitavastatin calcium contained 9.43 mass % of water, and therefore an amount as 1.1 mass time much as the dose was weighed to correct the practical dose. The suspension was refrigerated (4° C.) in a shaded bottle, and it was prepared every 7 days. EPA-E was taken from Epadel capsule (Dainippon Seiyaku Co., Ltd.) in use, suspended in refined water and controlled so that a dose was 2 ml/kg. […] The differences of multiple groups between the control group and the drug-administered groups were analyzed using Dunnett's multiple comparison test, preceded by Bartlett's analysis of variance."}
{"molecule": "O=C([O-])C[C@H](O)C[C@H](O)/C=C/c1c(C2CC2)nc2ccccc2c1-c1ccc(F)cc1.O=C([O-])C[C@H](O)C[C@H](O)/C=C/c1c(C2CC2)nc2ccccc2c1-c1ccc(F)cc1.[Ca+2]", "note": "[pitavastatin calcium]", "values": [{"measurement": "triglyceride concentration in blood", "result": "tended to be lowered"}]}
